Test results taken from the NIST ThermoML archive (doi:10.1016/j.fluid.2016.02.009).
± gives the expanded uncertainty stated by the source.

Settings: Liquid, Vibrating tube method

For `CCCCOCC` [butyl ethyl ether], the mass density (308.15 K, 35000 kPa) was 768.44 ± 0.55 kg/m3, the mass density (308.15 K, 40000 kPa) was 772.26 ± 0.59 kg/m3 and the mass density (308.15 K, 45000 kPa) was 775.95 ± 0.63 kg/m3. The mass density (308.15 K, 50000 kPa) was 779.48 ± 0.66 kg/m3, the mass density (308.15 K, 55000 kPa) was 782.89 ± 0.7 kg/m3 and the mass density (308.15 K, 60000 kPa) was 786.19 ± 0.73 kg/m3. The mass density (308.15 K, 65000 kPa) was 789.36 ± 0.77 kg/m3, the mass density (313.15 K, 100 kPa) was 730.45 ± 0.3 kg/m3 and the mass density (313.15 K, 5000 kPa) was 736.34 ± 0.33 kg/m3. The mass density (313.15 K, 10000 kPa) was 741.76 ± 0.37 kg/m3, the mass density (313.15 K, 15000 kPa) was 746.82 ± 0.41 kg/m3 and the mass density (313.15 K, 20000 kPa) was 751.59 ± 0.44 kg/m3. For the same compound, the mass density (313.15 K, 25000 kPa) was 756.09 ± 0.48 kg/m3, the mass density (313.15 K, 30000 kPa) was 760.38 ± 0.52 kg/m3 and the mass density (313.15 K, 35000 kPa) was 764.5 ± 0.56 kg/m3. For the same compound, the mass density (313.15 K, 40000 kPa) was 768.36 ± 0.6 kg/m3, the mass density (313.15 K, 45000 kPa) was 772.14 ± 0.63 kg/m3 and the mass density (313.15 K, 50000 kPa) was 775.74 ± 0.67 kg/m3. It also gave a mass density (313.15 K, 55000 kPa) of 779.22 ± 0.71 kg/m3, a mass density (313.15 K, 60000 kPa) of 782.57 ± 0.74 kg/m3 and a mass density (313.15 K, 65000 kPa) of 785.85 ± 0.78 kg/m3. The mass density (318.15 K, 100 kPa) was 725.44 ± 0.3 kg/m3, the mass density (318.15 K, 5000 kPa) was 731.57 ± 0.33 kg/m3 and the mass density (318.15 K, 10000 kPa) was 737.2 ± 0.37 kg/m3. The mass density (318.15 K, 15000 kPa) was 742.41 ± 0.41 kg/m3, the mass density (318.15 K, 20000 kPa) was 747.31 ± 0.45 kg/m3 and the mass density (318.15 K, 25000 kPa) was 751.96 ± 0.48 kg/m3. The mass density (318.15 K, 30000 kPa) was 756.38 ± 0.52 kg/m3, the mass density (318.15 K, 35000 kPa) was 760.54 ± 0.56 kg/m3 and the mass density (318.15 K, 40000 kPa) was 764.55 ± 0.6 kg/m3. For the same compound, the mass density (318.15 K, 45000 kPa) was 768.4 ± 0.64 kg/m3, the mass density (318.15 K, 50000 kPa) was 772.07 ± 0.68 kg/m3 and the mass density (318.15 K, 55000 kPa) was 775.65 ± 0.71 kg/m3. It also gave a mass density (318.15 K, 60000 kPa) of 779.08 ± 0.75 kg/m3, a mass density (318.15 K, 65000 kPa) of 782.35 ± 0.78 kg/m3 and a mass density (323.15 K, 100 kPa) of 720.43 ± 0.3 kg/m3. It also gave a mass density (323.15 K, 5000 kPa) of 726.77 ± 0.34 kg/m3, a mass density (323.15 K, 10000 kPa) of 732.59 ± 0.37 kg/m3 and a mass density (323.15 K, 15000 kPa) of 738 ± 0.41 kg/m3. The mass density (323.15 K, 20000 kPa) was 743.03 ± 0.45 kg/m3, the mass density (323.15 K, 25000 kPa) was 747.78 ± 0.48 kg/m3 and the mass density (323.15 K, 30000 kPa) was 752.29 ± 0.53 kg/m3. The mass density (323.15 K, 35000 kPa) was 756.59 ± 0.57 kg/m3, the mass density (323.15 K, 40000 kPa) was 760.68 ± 0.61 kg/m3 and the mass density (323.15 K, 45000 kPa) was 764.61 ± 0.65 kg/m3. It also gave a mass density (323.15 K, 50000 kPa) of 768.4 ± 0.69 kg/m3, a mass density (323.15 K, 55000 kPa) of 771.97 ± 0.72 kg/m3 and a mass density (323.15 K, 60000 kPa) of 775.47 ± 0.76 kg/m3. The mass density (323.15 K, 65000 kPa) was 778.87 ± 0.79 kg/m3, the mass density (328.15 K, 100 kPa) was 715.37 ± 0.3 kg/m3 and the mass density (328.15 K, 5000 kPa) was 721.95 ± 0.34 kg/m3. It also gave a mass density (328.15 K, 10000 kPa) of 727.94 ± 0.37 kg/m3, a mass density (328.15 K, 15000 kPa) of 733.52 ± 0.41 kg/m3 and a mass density (328.15 K, 20000 kPa) of 738.72 ± 0.45 kg/m3. For the same compound, the mass density (328.15 K, 25000 kPa) was 743.64 ± 0.49 kg/m3, the mass density (328.15 K, 30000 kPa) was 748.27 ± 0.53 kg/m3 and the mass density (328.15 K, 35000 kPa) was 752.68 ± 0.57 kg/m3. It also gave a mass density (328.15 K, 40000 kPa) of 756.87 ± 0.62 kg/m3, a mass density (328.15 K, 45000 kPa) of 760.88 ± 0.65 kg/m3 and a mass density (328.15 K, 50000 kPa) of 764.73 ± 0.69 kg/m3. For the same compound, the mass density (328.15 K, 55000 kPa) was 768.42 ± 0.73 kg/m3, the mass density (328.15 K, 60000 kPa) was 771.99 ± 0.77 kg/m3 and the mass density (328.15 K, 65000 kPa) was 775.41 ± 0.8 kg/m3. For the same compound, the mass density (333.15 K, 100 kPa) was 710.26 ± 0.3 kg/m3, the mass density (333.15 K, 5000 kPa) was 717.05 ± 0.34 kg/m3 and the mass density (333.15 K, 10000 kPa) was 723.28 ± 0.38 kg/m3. It also gave a mass density (333.15 K, 15000 kPa) of 729.03 ± 0.42 kg/m3, a mass density (333.15 K, 20000 kPa) of 734.4 ± 0.45 kg/m3 and a mass density (333.15 K, 25000 kPa) of 739.43 ± 0.49 kg/m3. The mass density (333.15 K, 30000 kPa) was 744.2 ± 0.54 kg/m3, the mass density (333.15 K, 35000 kPa) was 748.71 ± 0.58 kg/m3 and the mass density (333.15 K, 40000 kPa) was 753.02 ± 0.62 kg/m3. The mass density (333.15 K, 45000 kPa) was 757.13 ± 0.66 kg/m3, the mass density (333.15 K, 50000 kPa) was 761.02 ± 0.7 kg/m3 and the mass density (333.15 K, 55000 kPa) was 764.8 ± 0.74 kg/m3. It also gave a mass density (333.15 K, 60000 kPa) of 768.41 ± 0.78 kg/m3 and a mass density (333.15 K, 65000 kPa) of 771.92 ± 0.81 kg/m3.
